The text below walks through data of patent US10870639B2, “Pyrimidine compounds and pharmaceutical compositions for preventing or treating cancers including the same” (HANMI PHARM. CO., LTD., priority 2018, dated 2020).

Data set [1] is described as follows: Microsomal stability, human liver microsomes. Conditions: residual amount % after 1 hour, 37° C., 5 μM, 1 mg/ml microsomes, NADPH regenerating system. Format: in vitro ADME. How it is done: To confirm the reactivity of the test substances with intra-hepatic CYP450 enzymes, 5 μM test substances and 1 mg/ml human liver microsomes were incubated for 1 hour at a temperature of 37° C. in the presence of an NADPH regenerating system. After 1 hour, acetonitrile was added to terminate the reaction, and the supernatant obtained by centrifugation was analyzed by HPLC. The remaining amount % was calculated using the following equation using the value of the reacted sample for 1 hour relative to the value of the 0-minute sample as the peak value obtained as an analysis result. (Peak value of the sample reacted for 1 hour/peak value of the sample at 0 minutes)×100=residual amount %

Data set [2] is described as follows: Microsomal stability, mice microsomes. Format: in vitro ADME. Conditions: residual amount % after 1 hour, 37° C., 5 μM, NADPH regenerating system.
For a further data set, the target named is SYK (Homo sapiens (Human), UniProt P43405). Put plainly: z-LYTE kinase assay, SYK. Format: biochemical. To be noted: compound concentration 100 nM. On the procedure:
The SYK inhibitory activity of the compounds was evaluated based on z-LYTE technology developed by Thermo Fisher Scientific Inc. According to this evaluation method, signals of the fluorescence of FRET-peptides are measured, wherein fluorescence of a FRET-peptide which is phosphorylated by the […] and fluorescence of a non-phosphorylated peptide are measured to identify an activity with respect to kinase. […] The background signal was measured in the absence of proteins; a non-inhibitory signal was measured only when the solvent (1% DMSO) was added; and an evaluation compound was used at a concentration of 100 nM to calculate the SYK inhibitory activity of the evaluation compound as a percentage (%).

Another data set concerns MOLM-13. Put plainly: Cell growth inhibition (MTS), MOLM-13. Format: cell-based. Conditions: Homo sapiens, MOLM-13, 72 h, incubation three days. On the procedure: (§1) The human acute myelogenous leukemia […] cell line MOLM-13 (DSMZ no. ACC 554) was incubated in RPM11640 medium supplemented with 20% heat-inactivated FBS at a temperature of 37° C. The incubated cell line was prepared in an amount of 2.0×10^4 cells/100 μL, and then plated on a 96-well plate. The RPMI1640 medium was serially diluted with the test compounds at a concentration in a range of 1 μM to 0.01 nM at a ratio of 1:10. Subsequently, incubation was performed thereon for three days. For the human acute myelogenous leukemia cell line MV-4-11 cell line (ATCC® CRL-9591™), the cells were incubated at a temperature of 37° C. in IMDM medium supplemented with 10% FBS. The incubated cell line was prepared in an amount of 2×10^4 cells/100 μL, and then plated on a 96-well plate. The IMDM medium was treated with cascade dilution of three test compounds at a concentration in a range of 1 μM to 0.01 nM at a rate of 1/10. Subsequently, incubation was performed thereon for three days. MTS test was performed to measure cell viability, and the growth inhibition (GI50) value of the cell line was calculated using GraphPad Prism software.

A further data set deals with MV-4-11. Put plainly: Cell growth inhibition (MTS), MV-4-11. Format: cell-based. Conditions: Homo sapiens, MV4-11, 72 h, incubation three days. How it is done:
as §1

In another data set the target is VEGFR2 (KDR) (Homo sapiens (Human), UniProt P35968). Nature of the data set: z-LYTE kinase assay, VEGFR2. Format: biochemical. To be noted: compound concentration 100 nM.
Another data set concerns the target FLT3 WT (Homo sapiens (Human), UniProt P36888). Put plainly: LanthaScreen kinase binding assay, FLT3 WT. To be noted: kinase tracer-236, 50 nM to 0.05 nM.
The next data set addresses FLT3 ITD (Homo sapiens, UniProt P36888, ITD). Nature of the data set: LanthaScreen kinase binding assay, FLT3 ITD.
Data set [3] in a line: Pharmacokinetic profile in mice (p.o. and i.v.). To be noted: mouse, plasma; for AUC: LC-MS/MS, non-compartment analysis, read-out: Area under the curve (AUC) of mice; for bioavailability: po, BA=(AUC p.o./AUC i.v.)×(Dose i.v./Dose p.o.)×100. Format: in vivo. Further details: AUC: concentration or dose not given beside the values. How it is done:
After test substances were formulated by using the selected solvents, they were administered orally (p.o.) and intravenously (iv) once for each and a certain amount of blood was taken at a predetermined time, and plasma was isolated from the blood and a concentration analysis was performed thereon by LC-MS/MS. The AUC (drug concentration and an area under the curve) was calculated according to the linear-log trapezoidal summation formula by using the non-compartment analysis of the WinNonlin program through the plasma concentration curves over time. The bioavailability (BA) was calculated by applying the calculated AUC value to the following formula. BA (%)=(AUC p.o./AUC i.v.)×(Dose i.v./Dose p.o.)×100

Chain of VEGFR2 (KDR) (P35968 20-1356): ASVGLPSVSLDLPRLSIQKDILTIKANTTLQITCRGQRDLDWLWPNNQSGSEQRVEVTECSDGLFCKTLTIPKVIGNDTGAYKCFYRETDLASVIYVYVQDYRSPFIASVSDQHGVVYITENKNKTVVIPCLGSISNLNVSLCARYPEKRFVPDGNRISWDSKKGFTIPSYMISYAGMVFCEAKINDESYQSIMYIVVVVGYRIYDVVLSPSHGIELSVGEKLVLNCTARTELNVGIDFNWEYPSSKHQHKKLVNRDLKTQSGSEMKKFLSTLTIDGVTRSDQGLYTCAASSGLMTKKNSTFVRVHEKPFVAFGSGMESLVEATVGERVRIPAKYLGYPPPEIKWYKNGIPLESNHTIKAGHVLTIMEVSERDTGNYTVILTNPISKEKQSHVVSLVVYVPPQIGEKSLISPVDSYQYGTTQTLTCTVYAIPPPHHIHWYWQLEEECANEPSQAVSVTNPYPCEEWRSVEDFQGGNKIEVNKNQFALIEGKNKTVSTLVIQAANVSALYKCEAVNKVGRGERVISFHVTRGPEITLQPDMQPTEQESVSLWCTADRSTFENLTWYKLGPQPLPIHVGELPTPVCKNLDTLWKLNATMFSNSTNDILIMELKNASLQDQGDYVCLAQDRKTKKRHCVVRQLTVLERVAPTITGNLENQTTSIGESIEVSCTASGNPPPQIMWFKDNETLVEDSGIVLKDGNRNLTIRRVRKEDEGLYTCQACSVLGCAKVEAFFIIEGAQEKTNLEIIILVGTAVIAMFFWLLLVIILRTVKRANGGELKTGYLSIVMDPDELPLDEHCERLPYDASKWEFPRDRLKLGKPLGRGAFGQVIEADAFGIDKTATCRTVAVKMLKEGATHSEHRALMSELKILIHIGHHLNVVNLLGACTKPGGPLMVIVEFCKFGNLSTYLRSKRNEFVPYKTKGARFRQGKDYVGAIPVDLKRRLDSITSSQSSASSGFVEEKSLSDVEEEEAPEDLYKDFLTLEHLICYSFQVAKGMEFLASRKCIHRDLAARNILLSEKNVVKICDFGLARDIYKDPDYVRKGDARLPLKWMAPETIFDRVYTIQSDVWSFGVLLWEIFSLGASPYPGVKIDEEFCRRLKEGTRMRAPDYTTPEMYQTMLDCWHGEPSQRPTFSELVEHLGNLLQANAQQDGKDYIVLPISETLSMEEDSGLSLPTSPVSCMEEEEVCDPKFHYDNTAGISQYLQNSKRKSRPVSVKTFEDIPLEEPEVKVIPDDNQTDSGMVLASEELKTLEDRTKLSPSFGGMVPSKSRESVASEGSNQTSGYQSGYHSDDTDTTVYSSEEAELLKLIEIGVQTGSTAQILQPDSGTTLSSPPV
Chain of FLT3 WT (P36888 27-993): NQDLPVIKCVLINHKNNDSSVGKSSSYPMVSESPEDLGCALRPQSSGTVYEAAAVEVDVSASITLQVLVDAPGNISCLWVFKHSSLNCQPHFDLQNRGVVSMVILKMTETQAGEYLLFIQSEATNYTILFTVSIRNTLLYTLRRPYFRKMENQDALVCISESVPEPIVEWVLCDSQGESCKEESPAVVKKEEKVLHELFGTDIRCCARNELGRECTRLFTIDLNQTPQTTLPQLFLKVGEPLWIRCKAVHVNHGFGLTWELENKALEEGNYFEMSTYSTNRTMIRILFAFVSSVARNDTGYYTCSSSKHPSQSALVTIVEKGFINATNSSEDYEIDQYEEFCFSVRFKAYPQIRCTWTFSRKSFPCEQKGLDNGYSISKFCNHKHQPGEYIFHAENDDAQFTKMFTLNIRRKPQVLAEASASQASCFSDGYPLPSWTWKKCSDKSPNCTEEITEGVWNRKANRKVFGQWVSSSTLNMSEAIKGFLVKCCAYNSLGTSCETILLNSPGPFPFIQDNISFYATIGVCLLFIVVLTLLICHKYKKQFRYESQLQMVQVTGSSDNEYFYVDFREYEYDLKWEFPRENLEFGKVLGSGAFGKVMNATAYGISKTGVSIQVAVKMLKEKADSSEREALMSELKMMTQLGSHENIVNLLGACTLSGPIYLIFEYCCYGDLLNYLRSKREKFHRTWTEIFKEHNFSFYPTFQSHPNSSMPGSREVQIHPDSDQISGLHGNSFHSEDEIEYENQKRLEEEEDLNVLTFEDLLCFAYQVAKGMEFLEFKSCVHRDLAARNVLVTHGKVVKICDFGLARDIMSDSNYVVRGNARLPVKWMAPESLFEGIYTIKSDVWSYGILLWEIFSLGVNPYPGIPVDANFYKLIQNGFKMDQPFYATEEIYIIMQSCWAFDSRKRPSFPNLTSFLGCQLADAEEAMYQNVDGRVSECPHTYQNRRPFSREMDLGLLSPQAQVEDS
Chain of FLT3 ITD (P36888 whole entry, looked up, change not shown): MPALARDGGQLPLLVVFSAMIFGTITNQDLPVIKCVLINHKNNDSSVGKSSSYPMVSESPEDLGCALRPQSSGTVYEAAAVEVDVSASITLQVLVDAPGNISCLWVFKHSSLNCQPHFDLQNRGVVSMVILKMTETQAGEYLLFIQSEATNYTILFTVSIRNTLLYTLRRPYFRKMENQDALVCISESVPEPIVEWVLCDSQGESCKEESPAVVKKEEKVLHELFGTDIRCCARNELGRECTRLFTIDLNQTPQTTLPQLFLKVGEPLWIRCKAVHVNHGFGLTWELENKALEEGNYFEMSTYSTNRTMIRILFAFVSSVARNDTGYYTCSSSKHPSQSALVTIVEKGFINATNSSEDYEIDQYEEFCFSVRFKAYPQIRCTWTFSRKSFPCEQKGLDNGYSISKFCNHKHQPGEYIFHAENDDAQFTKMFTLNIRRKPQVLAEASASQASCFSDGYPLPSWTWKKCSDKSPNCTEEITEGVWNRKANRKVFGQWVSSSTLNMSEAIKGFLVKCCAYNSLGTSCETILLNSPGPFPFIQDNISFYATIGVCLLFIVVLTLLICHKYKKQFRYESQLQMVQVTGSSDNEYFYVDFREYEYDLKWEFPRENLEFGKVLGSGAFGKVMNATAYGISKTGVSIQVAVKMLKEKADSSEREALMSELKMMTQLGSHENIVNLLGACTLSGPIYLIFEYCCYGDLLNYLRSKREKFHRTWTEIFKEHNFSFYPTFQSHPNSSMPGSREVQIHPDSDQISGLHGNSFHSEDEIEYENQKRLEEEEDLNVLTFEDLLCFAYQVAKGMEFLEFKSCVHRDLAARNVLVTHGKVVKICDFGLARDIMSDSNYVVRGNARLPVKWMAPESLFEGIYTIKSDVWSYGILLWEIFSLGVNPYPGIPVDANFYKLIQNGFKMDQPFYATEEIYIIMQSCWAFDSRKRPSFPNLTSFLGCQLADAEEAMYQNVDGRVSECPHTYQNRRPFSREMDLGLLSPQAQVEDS
Method for FLT3 ITD: (§2) The inhibitory activity of some of the compounds described above against FLT3-ITD, FLT3 wild type (WT), VEGFR2 (KDR), and SYK kinase was measured.
(§3) This experiment was carried out on a 384-well plate in conditions including 50 mM HEPES pH 7.5, 0.01% BRIJ-35, 10 mM MgCl2, 1 mM EGTA, and 1% DMSO.
Method for FLT3 WT: as §2, §3

Turning to `CCN(CC)C1CCN(c2cc(Nc3ncc(Cl)c(-c4c[nH]c5cc(C)ccc45)n3)cc(C3CC3)c2)CC1` [Control Compound 6, reference compound], the “Human microsomal stability (%)” value in data set [1] was found to be 49%. In data set [2], the “Mice microsomal stability (%)” value was 29%.

For `C[C@@H]1CN(Cc2cc(Nc3ncc(Cl)c(-c4c[nH]c5cc(F)ccc45)n3)cc(C3CC3)c2)C[C@H](C)N1` [Example 1, 5-chloro-N-(3-cyclopropyl-5-(((3R,5S)-3,5-dimethylpiperazine-1-yl)methyl)phenyl)-4-(6-fluoro-1H-indole-3-yl)pyrimidine-2-amine], the inhibition at 0.1 µM is 73% against SYK and 95% at VEGFR2 (KDR). Besides, the 50% growth inhibitory concentration (GI50) stood at 4 nM with MOLM-13 and 1.2 nM in the data set on MV-4-11.

As for `C[C@@H]1CN(Cc2cc(Nc3ncc(Cl)c(-c4c[nH]c5cc(Cl)ccc45)n3)cc(C3CC3)c2)C[C@H](C)N1` [Example 2, 5-chloro-4-(6-chloro-1H-indole-3-yl)-N-(3-cyclopropyl-5-(((3R,5S)-3,5-dimethylpiperazine-1-yl)methyl)phenyl)pyrimidine-2-amine], the values for the GI50 with MOLM-13 and in the data set on MV-4-11 were 6.2 nM and 3.5 nM, respectively. Besides, the IC50 is 1.9 nM at FLT3 WT and 1.5 nM on FLT3 ITD.

In turn, `C[C@@H]1CN(Cc2cc(Nc3ncc(Cl)c(-c4c[nH]c5ccccc45)n3)cc(C3CC3)c2)C[C@H](C)N1CCO` [Example 4, 2-((2R,6S)-4-(3-((5-chloro-4-(1H-indole-3-yl)pyrimidine-2-yl)amino)-5-cyclopropylbenzyl)-2,6-dimethylpiperazine-1-yl)ethane-1-ol] yielded a concentration for 50% growth inhibition (GI50) in the data set with MOLM-13 of 0.7 nM. The compound further gave a half-maximal inhibitory concentration (IC50) on FLT3 ITD of 3.6 nM. For the same compound, the GI50 with MV-4-11 turned out to be 1.7 nM. In addition, in data set [3], the exposure (AUC) turned out to be 184 ng·h/mL and the bioavailability stood at 7.4%.

With `Cc1ccc2c(-c3nc(Nc4cc(CN5C[C@@H](C)N(CCO)[C@@H](C)C5)cc(C5CC5)c4)ncc3Cl)c[nH]c2c1` [Example 5, 2-((2R,6S)-4-(3-((5-chloro-4-(6-methyl-1H-indole-3-yl)pyrimidine-2-yl)amino)-5-cyclopropylbenzyl)-2,6-dimethylpiperazine-1-yl)ethane-1-ol], the inhibition at 0.1 µM worked out at 78% on SYK and 71% against VEGFR2 (KDR). Moreover, the concentration for 50% growth inhibition (GI50) amounted to 0.8 nM in the data set with MOLM-13 and 0.5 nM with MV-4-11. The IC50 on FLT3 ITD was 7.2 nM.

On to `Cc1ccc2c(-c3nc(Nc4cc(CN5C[C@@H](C)N[C@@H](C)C5)cc(C5CC5)c4)ncc3Cl)c[nH]c2c1` [Example 8, 5-chloro-N-(3-cyclopropyl-5-(((3R,5S)-3,5-dimethylpiperazine-1-yl)methyl)phenyl)-4-(6-methyl-1H-indole-3-yl)pyrimidine-2-amine], for which the values for the inhibition at 0.1 µM against SYK and on VEGFR2 (KDR) were 95% and 100%, respectively. The concentration for 50% growth inhibition (GI50) in the data set with MOLM-13 came out at 5.2 nM; with MV-4-11, 1.3 nM.

Regarding `Cc1ccc2c(-c3nc(Nc4cc(CN5C[C@@H](C)N[C@@H](C)C5)cc(C5CC5)c4)ncc3F)c[nH]c2c1` [Example 12, N-(3-cyclopropyl-5-(((3R,5S)-3,5-dimethylpiperazine-1-yl)methyl)phenyl)-5-fluoro-4-(6-methyl-1H-indole-3-yl)pyrimidine-2-amine], the GI50 amounted to 21 nM in the data set on MOLM-13 and 11 nM with MV-4-11. Besides, the results for the IC50 at FLT3 WT and on FLT3 ITD were 1.2 nM and 2.5 nM, respectively.

Regarding `C[C@@H]1CN(Cc2cc(Nc3ncc(Cl)c(-c4c[nH]c5cc(CO)ccc45)n3)cc(C3CC3)c2)C[C@H](C)N1` [Example 16, (3-(5-chloro-2-((3-cyclopropyl-5-(((3R,5S)-3,5-dimethylpiperazine-1-yl)methyl)phenyl)amino)pyrimidine-4-yl)-1H-indole-6-yl)methanol], the IC50 at FLT3 WT was found to be 0.4 nM; at FLT3 ITD, 0.5 nM.

With `COc1cc2c(-c3nc(Nc4cc(CN5C[C@@H](C)N[C@@H](C)C5)cc(C5CC5)c4)ncc3Cl)c[nH]c2cc1C` [Example 17, 5-chloro-N-(3-cyclopropyl-5-(((3R,5S)-3,5-dimethylpiperazine-1-yl)methyl)phenyl)-4-(5-methoxy-6-methyl-1H-indole-3-yl)pyrimidine-2-amine], the IC50 was 9.5 nM at FLT3 WT and greater than 50 nM at FLT3 ITD.

As to `Cc1cc2[nH]cc(-c3nc(Nc4cc(CN5C[C@@H](C)N[C@@H](C)C5)cc(C5CC5)c4)ncc3Cl)c2cc1O` [Example 18, 3-(5-chloro-2-((3-cyclopropyl-5-(((3R,5S)-3,5-dimethylpiperazine-1-yl)methyl)phenyl)amino)pyrimidine-4-yl)-6-methyl-1H-indole-5-ol], the concentration for half-maximal inhibition (IC50) is 3.7 nM at FLT3 WT and 13 nM on FLT3 ITD.

As for `Cc1ccc2c(-c3nc(Nc4cc(C5CC5)cc(CN5C[C@@H](C)N[C@@H](C)C5)c4O)ncc3Cl)c[nH]c2c1` [Example 23, 2-((5-chloro-4-(6-methyl-1H-indole-3-yl)pyrimidine-2-yl)amino)-4-cyclopropyl-6-(((3R,5S)-3,5-dimethylpiperazine-1-yl)methyl)phenol], the IC50 at FLT3 WT was 0.4 nM; at FLT3 ITD, greater than 50 nM.

For `Cc1ccc2c(-c3nc(Nc4cc(CN5C[C@@H](C)NC(C)(C)C5)cc(C5CC5)c4)ncc3Cl)c[nH]c2c1` [Example 25, (R)-5-chloro-N-(3-cyclopropyl-5-((3,3,5-trimethylpiperazine-1-yl)methyl)phenyl)-4-(6-methyl-1H-indole-3-yl)pyrimidine-2-amine], the GI50 in the data set with MOLM-13 is 8.5 nM; in the data set with MV-4-11, 9.3 nM. For the same compound, the half-inhibitory concentration (IC50) came out at 2.3 nM at FLT3 WT and 20 nM on FLT3 ITD. For the same compound, the area under the curve (AUC) in data set [3] is 21800 ng·h/mL. In data set [3], the bioavailability is 21.2%.

In the case of `Cc1ccc2c(-c3nc(Nc4cc(CN5C[C@H](CO)N[C@H](C)C5)cc(C5CC5)c4)ncc3Cl)c[nH]c2c1` [Example 26, ((2R,6R)-4-(3-((5-chloro-4-(6-methyl-1H-indole-3-yl)pyrimidine-2-yl)amino)-5-cyclopropylbenzyl)-6-methylpiperazine-2-yl)methanol], the 50% growth inhibitory concentration (GI50) in the data set with MOLM-13 amounted to 6.1 nM; with MV-4-11 it was 22 nM. In addition, the IC50 was found to be 1.5 nM on FLT3 WT and 2.3 nM at FLT3 ITD.

Turning to `Cc1ccc2c(-c3nc(Nc4cc(CN5C[C@@H](C)NC6(CC6)C5)cc(C5CC5)c4)ncc3Cl)c[nH]c2c1` [Example 27, (R)-5-chloro-N-(3-cyclopropyl-5-((5-methyl-4,7-diazaspiro[2.5]octan-7-yl)methyl)phenyl)-4-(6-methyl-1H-indole-3-yl)pyrimidine-2-amine], in data set [1], the “Human microsomal stability (%)” value worked out at 72%. Besides, the “Mice microsomal stability (%)” value in [2] came to 69%.
